Measured values from ChEMBL document CHEMBL5260810, “Inhibition of bromodomain-containing protein 9 for the prevention of epigenetically-defined drug resistance” (Bioorg Med Chem Lett, 2017).
pIC50, pKd: −log10 of the molar value.

Columns and labels:
[1] = tested on: HCT-15; assay: Cytotoxicity against human HCT-15 cells measured after 8 days; type: functional, cell-based; conditions: HCT-15, 192 h
[2] = tested on: SNU-C1; assay: Cytotoxicity against human SNU-C1 cells measured after 8 days; type: functional, cell-based; conditions: SNU-C1, 192 h
[3] = biological target: T1, Serine/threonine-protein kinase Chk1 (Homo sapiens) (UniProt O14757); assay: Inhibition of CHK1 (unknown origin) at 1 uM relative to control
T1 sequence (whole entry): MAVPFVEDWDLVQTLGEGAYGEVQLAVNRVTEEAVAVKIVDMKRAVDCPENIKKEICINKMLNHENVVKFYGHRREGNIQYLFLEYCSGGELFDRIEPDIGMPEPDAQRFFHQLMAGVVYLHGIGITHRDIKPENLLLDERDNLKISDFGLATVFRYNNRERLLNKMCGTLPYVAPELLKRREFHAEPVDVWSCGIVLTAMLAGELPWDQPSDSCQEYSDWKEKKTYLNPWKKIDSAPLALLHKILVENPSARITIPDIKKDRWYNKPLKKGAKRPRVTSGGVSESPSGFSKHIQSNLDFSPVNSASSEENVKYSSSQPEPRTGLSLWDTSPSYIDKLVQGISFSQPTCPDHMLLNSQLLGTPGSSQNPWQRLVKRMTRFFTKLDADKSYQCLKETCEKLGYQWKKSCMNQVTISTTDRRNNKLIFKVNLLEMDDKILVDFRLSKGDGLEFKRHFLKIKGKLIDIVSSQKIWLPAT

[4] = biological target: Transcription initiation factor TFIID subunit 1-like (Homo sapiens, UniProt Q8IZX4); assay: Binding affinity to human partial length TAF1L bromodomain 2 (Q1523 to D1654 residues) expressed in bacterial expression system by BROMOscan assay
[5] = Cytotoxicity against human HS-Sultan cells measured after 8 days; type: functional, cell-based; conditions: 192 h
[6] = biological target: 5-hydroxytryptamine receptor 2A (Homo sapiens) (UniProt P28223); assay: Displacement of [3H]ketanserin human recombinant 5-HT2A receptor at 10 uM after 60 mins by scintillation counting analysis relative to control
[7] = tested on: MCF7; assay: Cytotoxicity against human MCF7 cells measured after 8 days; type: functional, cell-based; conditions: MCF7, 192 h
[8] = tested on: NCI-H1944; assay: Cytotoxicity against human NCI-H1944 cells measured after 8 days; type: functional, cell-based; conditions: NCI-H1944, 192 h
[9] = biological target: Bromodomain adjacent to zinc finger domain protein 2B (Homo sapiens, UniProt Q9UIF8); assay: Binding affinity to human partial length BAZ2B (S2054 to S2168 residues) expressed in bacterial expression system by BROMOscan assay
[10] = tested on: HDQ-P1; assay: Cytotoxicity against human HDQ-P1 cells measured after 8 days; type: functional, cell-based; conditions: HDQ-P1, 192 h
[11] = tested on: KP-4; assay: Cytotoxicity against human KP-4 cells measured after 8 days; type: functional, cell-based; conditions: KP-4, 192 h
[12] = tested on: HOP-62; assay: Cytotoxicity against human HOP-62 cells measured after 8 days; type: functional, cell-based; conditions: HOP-62, 192 h
[13] = tested on: WiDr; assay: Cytotoxicity against human WiDr cells measured after 8 days; type: functional, cell-based; conditions: 192 h
[14] = biological target: Bromodomain-containing protein 4 (Homo sapiens, UniProt O60885); assay: Binding affinity to BRD4 bromodomain 1/2 long isoform (unknown origin) by BROMOscan assay
[15] = tested on: SR; assay: Cytotoxicity against human SR cells measured after 8 days; type: functional, cell-based; conditions: 192 h
[16] = tested on: RERF-LC-MS; assay: Cytotoxicity against human RERF-LC-MS cells measured after 8 days; type: functional, cell-based; conditions: 192 h
[17] = tested on: MFM-223; assay: Cytotoxicity against human MFM-223 cells measured after 8 days; type: functional, cell-based; conditions: MFM-223, 192 h
[18] = tested on: COLO 320DM; assay: Cytotoxicity against human COLO 320DM cells measured after 8 days; type: functional, cell-based; conditions: 192 h
[19] = tested on: MDA-MB-231; assay: Cytotoxicity against human MDA-MB-231 cells measured after 8 days; type: functional, cell-based; conditions: MDA-MB-231, 192 h
[20] = Cytotoxicity against human PL-21 cells measured after 8 days; type: functional, cell-based; conditions: PL-21, 192 h
[21] = Cytotoxicity against human HMY-1 cells measured after 8 days; type: functional, cell-based; conditions: HMY-1, 192 h
[22] = tested on: NCI-H1666; assay: Cytotoxicity against human NCI-H1666 cells measured after 8 days; type: functional, cell-based; conditions: NCI-H1666, 192 h
[23] = biological target: T2, Muscle, skeletal receptor tyrosine-protein kinase (Homo sapiens) (UniProt O15146); assay: Inhibition of MuSK (unknown origin) at 1 uM relative to control
T2 sequence (whole entry): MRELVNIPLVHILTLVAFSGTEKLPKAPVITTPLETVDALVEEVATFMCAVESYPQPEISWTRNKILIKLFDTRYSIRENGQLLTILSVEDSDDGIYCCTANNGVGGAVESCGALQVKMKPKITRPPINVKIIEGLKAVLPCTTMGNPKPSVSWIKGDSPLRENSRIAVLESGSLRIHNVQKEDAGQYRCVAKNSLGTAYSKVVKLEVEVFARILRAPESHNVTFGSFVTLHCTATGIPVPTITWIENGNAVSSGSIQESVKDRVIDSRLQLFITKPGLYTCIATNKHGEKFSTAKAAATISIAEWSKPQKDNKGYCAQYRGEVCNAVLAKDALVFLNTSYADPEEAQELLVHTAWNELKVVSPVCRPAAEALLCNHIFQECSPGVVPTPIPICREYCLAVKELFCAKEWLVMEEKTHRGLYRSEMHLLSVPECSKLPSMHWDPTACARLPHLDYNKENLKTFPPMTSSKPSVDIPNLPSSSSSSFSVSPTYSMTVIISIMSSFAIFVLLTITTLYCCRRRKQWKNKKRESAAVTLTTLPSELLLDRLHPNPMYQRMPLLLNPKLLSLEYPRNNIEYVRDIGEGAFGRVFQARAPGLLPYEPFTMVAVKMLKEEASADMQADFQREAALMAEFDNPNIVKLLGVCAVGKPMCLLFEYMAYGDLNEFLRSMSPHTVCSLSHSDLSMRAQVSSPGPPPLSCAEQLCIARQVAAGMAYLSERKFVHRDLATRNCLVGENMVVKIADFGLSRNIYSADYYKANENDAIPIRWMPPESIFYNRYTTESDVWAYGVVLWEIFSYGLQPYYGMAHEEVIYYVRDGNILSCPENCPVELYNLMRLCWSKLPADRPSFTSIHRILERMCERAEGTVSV

[24] = tested on: NCI-H358; assay: Cytotoxicity against human NCI-H358 cells measured after 8 days; type: functional, cell-based; conditions: NCI-H358, 192 h
[25] = tested on: NCI-H1975; assay: Cytotoxicity against human NCI-H1975 cells measured after 8 days; type: functional, cell-based; conditions: NCI-H1975, 192 h
[26] = tested on: SW948; assay: Cytotoxicity against human SW948 cells measured after 8 days; type: functional, cell-based; conditions: SW948, 192 h
[27] = tested on: EVSA-T; assay: Cytotoxicity against human EVSA-T cells measured after 8 days; type: functional, cell-based; conditions: 192 h
[28] = Cytotoxicity against human HCA7 cells measured after 8 days; type: functional, cell-based; conditions: HCA-7, 192 h
[29] = biological target: Receptor-type tyrosine-protein kinase FLT3 (Homo sapiens) (UniProt P36888); assay: Inhibition of Flt3 (unknown origin) at 1 uM relative to control
[30] = Cytotoxicity against human KMM-1 cells measured after 8 days; type: functional, cell-based; conditions: KMM-1, 192 h

Sequence of Transcription initiation factor TFIID subunit 1-like (Q8IZX4 whole entry, the tested form may be a part): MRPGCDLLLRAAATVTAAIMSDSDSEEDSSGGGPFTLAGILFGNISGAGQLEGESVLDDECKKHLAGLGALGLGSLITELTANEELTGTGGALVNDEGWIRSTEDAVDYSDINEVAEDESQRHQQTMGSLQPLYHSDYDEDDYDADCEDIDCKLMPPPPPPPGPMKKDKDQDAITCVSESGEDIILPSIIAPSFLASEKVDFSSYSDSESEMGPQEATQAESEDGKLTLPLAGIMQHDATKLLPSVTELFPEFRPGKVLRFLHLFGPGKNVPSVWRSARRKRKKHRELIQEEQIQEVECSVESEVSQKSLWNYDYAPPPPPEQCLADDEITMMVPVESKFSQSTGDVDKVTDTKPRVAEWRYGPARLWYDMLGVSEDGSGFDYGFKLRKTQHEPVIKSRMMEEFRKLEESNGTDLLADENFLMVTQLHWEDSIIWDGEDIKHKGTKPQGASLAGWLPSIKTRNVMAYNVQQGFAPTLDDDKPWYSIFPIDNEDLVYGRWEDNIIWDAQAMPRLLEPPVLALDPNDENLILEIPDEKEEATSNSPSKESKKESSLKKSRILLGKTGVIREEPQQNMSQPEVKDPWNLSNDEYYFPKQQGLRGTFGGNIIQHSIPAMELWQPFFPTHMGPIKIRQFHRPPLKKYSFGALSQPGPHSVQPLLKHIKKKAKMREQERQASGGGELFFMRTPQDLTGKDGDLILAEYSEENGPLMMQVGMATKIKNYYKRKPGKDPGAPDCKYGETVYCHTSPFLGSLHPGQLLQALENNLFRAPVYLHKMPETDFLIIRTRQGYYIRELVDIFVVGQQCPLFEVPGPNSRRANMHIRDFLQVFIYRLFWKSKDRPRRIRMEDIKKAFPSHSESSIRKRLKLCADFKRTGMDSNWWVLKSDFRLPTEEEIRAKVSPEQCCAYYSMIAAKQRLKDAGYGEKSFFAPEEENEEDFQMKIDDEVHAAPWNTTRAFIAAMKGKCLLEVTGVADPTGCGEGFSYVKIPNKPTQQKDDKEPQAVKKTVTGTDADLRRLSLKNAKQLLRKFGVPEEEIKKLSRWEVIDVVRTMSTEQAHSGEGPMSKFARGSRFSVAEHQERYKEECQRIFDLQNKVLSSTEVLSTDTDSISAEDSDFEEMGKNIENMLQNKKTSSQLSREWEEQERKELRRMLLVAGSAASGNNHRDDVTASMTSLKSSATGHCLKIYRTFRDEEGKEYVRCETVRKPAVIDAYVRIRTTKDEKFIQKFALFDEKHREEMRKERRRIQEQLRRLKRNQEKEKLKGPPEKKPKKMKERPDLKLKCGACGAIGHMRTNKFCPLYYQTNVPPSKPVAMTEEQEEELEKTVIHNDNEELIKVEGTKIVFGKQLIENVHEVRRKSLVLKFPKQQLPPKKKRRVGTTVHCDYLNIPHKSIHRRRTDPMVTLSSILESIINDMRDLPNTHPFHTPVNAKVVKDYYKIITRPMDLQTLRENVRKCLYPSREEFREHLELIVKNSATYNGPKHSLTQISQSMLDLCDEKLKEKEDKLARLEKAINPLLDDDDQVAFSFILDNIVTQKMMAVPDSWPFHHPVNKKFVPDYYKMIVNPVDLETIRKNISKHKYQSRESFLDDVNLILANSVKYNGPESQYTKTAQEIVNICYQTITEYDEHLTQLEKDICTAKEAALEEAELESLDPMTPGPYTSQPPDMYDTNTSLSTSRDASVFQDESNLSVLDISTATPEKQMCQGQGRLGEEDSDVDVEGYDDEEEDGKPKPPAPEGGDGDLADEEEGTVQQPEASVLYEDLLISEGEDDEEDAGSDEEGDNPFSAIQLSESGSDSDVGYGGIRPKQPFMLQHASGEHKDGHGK
Sequence of Receptor-type tyrosine-protein kinase FLT3 (Homo sapiens) (P36888 whole entry): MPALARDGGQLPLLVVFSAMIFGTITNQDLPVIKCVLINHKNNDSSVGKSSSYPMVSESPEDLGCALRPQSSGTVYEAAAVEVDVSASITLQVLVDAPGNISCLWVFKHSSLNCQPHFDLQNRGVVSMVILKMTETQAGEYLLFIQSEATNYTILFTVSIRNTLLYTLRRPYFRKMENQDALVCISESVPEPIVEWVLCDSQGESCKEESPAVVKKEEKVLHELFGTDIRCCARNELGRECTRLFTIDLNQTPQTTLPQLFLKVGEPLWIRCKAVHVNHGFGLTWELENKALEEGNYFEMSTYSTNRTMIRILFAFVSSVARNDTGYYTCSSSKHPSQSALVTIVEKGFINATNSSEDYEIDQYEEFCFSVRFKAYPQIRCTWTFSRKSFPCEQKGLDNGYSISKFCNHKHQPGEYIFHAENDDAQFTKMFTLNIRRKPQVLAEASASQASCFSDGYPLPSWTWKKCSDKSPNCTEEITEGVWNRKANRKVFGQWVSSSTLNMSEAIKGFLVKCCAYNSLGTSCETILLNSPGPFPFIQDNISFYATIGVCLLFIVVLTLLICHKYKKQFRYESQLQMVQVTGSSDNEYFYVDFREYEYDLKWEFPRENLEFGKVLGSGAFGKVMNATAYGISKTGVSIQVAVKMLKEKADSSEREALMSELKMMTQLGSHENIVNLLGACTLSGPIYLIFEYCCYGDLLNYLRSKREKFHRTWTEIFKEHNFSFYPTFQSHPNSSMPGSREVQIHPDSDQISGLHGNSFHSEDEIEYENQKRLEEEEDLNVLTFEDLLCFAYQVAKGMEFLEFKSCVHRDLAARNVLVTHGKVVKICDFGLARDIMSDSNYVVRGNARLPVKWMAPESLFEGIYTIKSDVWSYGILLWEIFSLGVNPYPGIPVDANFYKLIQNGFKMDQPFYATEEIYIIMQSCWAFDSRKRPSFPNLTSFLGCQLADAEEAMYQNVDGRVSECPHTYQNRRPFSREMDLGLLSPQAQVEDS
Sequence of 5-hydroxytryptamine receptor 2A (Homo sapiens) (P28223 whole entry): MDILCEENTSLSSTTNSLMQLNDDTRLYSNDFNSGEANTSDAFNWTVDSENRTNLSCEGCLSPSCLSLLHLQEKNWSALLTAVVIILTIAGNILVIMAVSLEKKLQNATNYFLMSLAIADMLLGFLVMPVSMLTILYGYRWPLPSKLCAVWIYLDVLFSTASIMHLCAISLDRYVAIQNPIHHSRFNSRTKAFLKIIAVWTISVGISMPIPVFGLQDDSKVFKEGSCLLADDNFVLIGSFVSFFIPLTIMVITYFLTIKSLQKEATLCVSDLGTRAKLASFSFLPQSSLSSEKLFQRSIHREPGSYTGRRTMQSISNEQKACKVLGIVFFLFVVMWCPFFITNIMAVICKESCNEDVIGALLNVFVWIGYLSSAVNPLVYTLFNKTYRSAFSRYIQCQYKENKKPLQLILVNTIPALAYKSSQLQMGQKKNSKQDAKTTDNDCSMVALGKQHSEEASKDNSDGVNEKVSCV

Row | SMILES | pIC50 [1] | pIC50 [2] | inhibition [3] | pKd [4] | pIC50 [5] | Activity [6] | pIC50 [7] | pIC50 [8] | pKd [9] | pIC50 [10] | pIC50 [11] | pIC50 [12] | pIC50 [13] | pKd [14] | pIC50 [15] | pIC50 [16] | pIC50 [17] | pIC50 [18] | pIC50 [19] | pIC50 [20] | other results
1 | C/C=C/Cn1cc(-c2ccc(C(=O)N3CCOCC3)cc2)c2cc[nH]c2c1=O | 4.70 | 4.70 | 3.4% | 6.21 | 4.70 | 11% | 4.70 | 4.70 | < 5.00 | 4.70 | 4.70 | 4.70 | 4.70 | 5.06 | 4.70 | 4.70 | 4.70 | 4.70 | 4.70 | 4.70 | pIC50 [21]: 4.70; pIC50 [22]: 4.71; inhibition [23]: -2.4%; pIC50 [24]: 4.70; pIC50 [25]: 4.70; pIC50 [26]: 4.70; pIC50 [27]: 4.70; pIC50 [28]: 4.70; inhibition [29]: 4.4%; pIC50 [30]: 4.70
2 | C/C=C/Cn1cc(-c2cc(OC)c(C(C)(C)O)cc2OC)c2cc(C)[nH]c2c1=O | – | – | – | < 5.00 | – | – | – | – | < 5.00 | – | – | – | – | < 5.00 | – | – | – | – | – | – | –
3 | C/C=C/Cn1cc(-c2cc(OC)c(C(=O)N3CCOCC3)cc2OC)c2cc(C)[nH]c2c1=O | 5.70 | 5.70 | -7.5% | < 5.00 | 5.70 | 15% | 5.87 | 5.70 | < 5.00 | 5.70 | 5.70 | 5.70 | 5.70 | < 5.00 | 5.70 | 5.70 | 5.84 | 5.70 | 5.70 | 5.70 | pIC50 [21]: 5.70; pIC50 [22]: 5.70; inhibition [23]: 3%; pIC50 [24]: 5.70; pIC50 [25]: 5.70; pIC50 [26]: 5.70; pIC50 [27]: 5.70; pIC50 [28]: 5.70; inhibition [29]: 6%; pIC50 [30]: 5.70
4 | C/C=C/Cn1cc(-c2ccc(C(C)(C)O)cc2OC)c2cc[nH]c2c1=O | 4.84 | 4.70 | 7% | < 5.00 | 4.70 | 0% | 4.70 | 4.70 | < 5.00 | 4.70 | 4.70 | 4.70 | 4.70 | 5.77 | 4.70 | 4.70 | 4.94 | 4.70 | 4.70 | 4.70 | pIC50 [21]: 4.70; pIC50 [22]: 4.70; inhibition [23]: 1.5%; pIC50 [24]: 4.70; pIC50 [25]: 4.70; pIC50 [26]: 4.70; pIC50 [27]: 4.70; pIC50 [28]: 4.70; inhibition [29]: 15%; pIC50 [30]: 4.70
